# Test results reported in patent publication US20060035291A1, “Method of detecting cellular immunity and application thereof to drugs” (priority 2001, published 2006).
# Where two headings read alike, the source gives them in different places. Where no end group is shown, it is not given here.
# What was measured:
# healthy donors [1] = details: in vivo
# healthy donors [2] = assay: Allergic skin reaction (type I allergy) skin test in healthy donors
# [3] = test system: HLA-A24 restricted antigen peptide-specific T cells (CTL precursors) in PBMCs; type: cell-based, human; details: for CTL precursor induction assay, response level per well: quadricate assay; for IFN-γ production: background deducted
# cancer patients = assay: Skin test for immediate and delayed type hypersensitivity in cancer patients
# Experimental: For the skin test, 10 μg of 5 kinds of peptides was subcutaneously administered to each patient. Saline was used as the negative control. 20 minutes and 24 hours after injection, immediate and delayed type hypersensitivity (DHT) reactions were looked for. The skin test reaction was determined as positive if erythema and sclerosis were more than 10 mm in diameter. If the immediate hypersensitivity reaction was negative, a peptide was administered. Each peptide solution (3 mg/ml) was mixed with the same amount of IFA (Montanide ISA-51) and emulsified in a 5-mI plastic syringe, and 3 ml of the emulsion was subcutaneously administered to the lateral femoral region every two weeks. Serum PSA level was measured 4 weeks after vaccination. The time passed was defined as the time from the registration day to the date when the progress of the target disease was recorded. For patients who chose to discontinue the study without any progress of the target disease (e.g., increase in PSA) it was determined that the disease had progressed at the time the study was stopped.
# When an immediate hypersensitivity reaction positive in the skin test of one of these peptides, that peptide was vaccinated if the fifth peptide of criteria A, B, or Z was negative in the skin test. […] In Table 14, o signifies vaccine peptides given to each patient.
# Vaccine was administered to HLA-A24 positive patients with progressive cancer as following. CypB91 was given to lung cancer patients, ART475 to ovarian cancer patients, and SART3109 to colorectal cancer patients. None of the patients received any steroids or other immunosuppressants from 4 weeks before the beginning of this study to the end of the study. When the skin test was negative, 1 ml of peptide solution (1 mg/ml) was emulsified with the same amount of Freund's incomplete adjuvant (Montanide ISA-51) and injected subcutaneously. In this embodiment, all patients were vaccinated at least three times every two weeks, and up to seventeen times, depending on the patient's wishes.
# [4] = HLA-A24 positive cervical cancer patient PBMCs
# [5] = HLA-A24 positive cervical cancer patient, after more than 5 doses of cancer vaccine
# [6] = HLA-A24 positive cervical cancer patient, before vaccination, response to HIV-C1R-A24 cells subtracted
# [7] = HRPC Pt. 9, pre-vaccinated PBMCs
# [8] = colorectal cancer patient 4, after the 3rd vaccination
sequence,measurement,setting,value
KFHRGIKDF [CypB 84-5G],suppressed cases FR ≦ 0.25,healthy donors [1],0/7
GFLRHAAL [ART4 13-1G],suppressed cases FR ≦ 0.25,healthy donors [1],0/4
NFHRVIKDF,"Allergic skin reaction, area of flare",healthy donors [2]; healthy donor HD1,360 mm × mm
same,"Allergic skin reaction, area of flare",healthy donors [2]; healthy donor HD2,1400 mm × mm
same,"Allergic skin reaction, area of flare",healthy donors [2]; healthy donor HD3,600 mm × mm
same,"Allergic skin reaction, area of flare",healthy donors [2]; healthy donor HD6,1350 mm × mm
same,"Allergic skin reaction, area of flare",healthy donors [2]; healthy donor HD10,300 mm × mm
HYTNASDGL [lck208],frequency of detection in the primary screening (patients),[3],3/10
same,IFN-γ production After 3rd dose of vaccine,[3]; [4],676 pg/mL
same,IFN-γ production After 6th dose of vaccine,[3]; [4],745 pg/mL
same,IFN-γ production Pre-Vaccination,[3]; [4],602 pg/mL
same,IFN-γ production 1st well,[3]; [5],41 pg/well
same,IFN-γ production 2nd well,[3]; [5],1473 pg/well
same,IFN-γ production 1st well,[3]; [6],<0 pg/well
same,IFN-γ production 2nd well,[3]; [6],<0 pg/well
same,IFN-γ production 3rd well,[3]; [6],76 pg/well
same,change in reactivity of PBMCs to the vaccinated peptide after vaccination,"[3]; HLA-A24 positive cervical cancer patient, before vs after 3rd and 6th dose",increase in reactivity
same,"CTL precursor induction assay, response level per well","[3]; HRPC Pt. 1, pre-vaccinated PBMCs",E^′
same,"CTL precursor induction assay, response level per well","[3]; HRPC Pt. 3, pre-vaccinated PBMCs",⊚AD
same,"CTL precursor induction assay, response level per well","[3]; HRPC Pt. 6, pre-vaccinated PBMCs",⊚ArAAC
same,"CTL precursor induction assay, response level per well",[3]; [7],⊚AD
same,positive well frequency after vaccination,[3]; colorectal cancer patient 1,increase in positive well frequency
same,positive well frequency after vaccination,[3]; colorectal cancer patient 2,increase in positive well frequency
same,peptide-specific DTH reaction,cancer patients; colorectal cancer patient 1,observed after the 6th vaccination
same,peptide-specific DTH reaction,cancer patients; [8],exhibited DTH reaction
AGLRHAAL,skin reaction,healthy donors [1],did not induce skin reaction in any of 4 donors
AFLGHAAL [ART4 13-4G],"skin test, area of flare",healthy donors [1],0 mm × mm
same,suppressed cases FR ≦ 0.25,healthy donors [1],4/4
"RFYIQMCYEL [Flu peptide, reference compound]",IFN-γ production,"[3]; protocol A: interval 1 day, 10 stimulations, 11 days, HLA-A24 positive healthy donors",0 pg/mL
same,IFN-γ production,"[3]; protocol B: interval 2 days, 6 stimulations, 11 days, HLA-A24 positive healthy donors",227 pg/mL
same,IFN-γ production,"[3]; protocol C: interval 3 days, 5 stimulations, 13 days, HLA-A24 positive healthy donors",242 pg/mL
same,IFN-γ production,"[3]; protocol D: interval 4 days, 4 stimulations, 13 days, HLA-A24 positive healthy donors",29 pg/mL
same,IFN-γ production,"[3]; protocol E: interval 5 days, 3 stimulations, 11 days, HLA-A24 positive healthy donors",16 pg/mL
same,IFN-γ production,"[3]; protocol F: interval 6 days, 3 stimulations, 13 days, HLA-A24 positive healthy donors",0 pg/mL
same,IFN-γ production,"[3]; protocol G: interval 7 days, 3 stimulations, 21 days, 24-well plate, radiated auto-PBMCs",150 pg/mL
AFGRHAAL [ART4 13-3G],suppressed cases FR ≦ 0.25,healthy donors [1],1/4
DYSARWNEI [SART293],frequency of detection in the primary screening (patients),[3],4/10
same,IFN-γ production 1st well,[3]; [5],12 pg/well
same,IFN-γ production 2nd well,[3]; [5],58 pg/well
same,IFN-γ production 3rd well,[3]; [5],21 pg/well
same,IFN-γ production 1st well,[3]; [6],<0 pg/well
same,IFN-γ production 2nd well,[3]; [6],33 pg/well
same,IFN-γ production 3rd well,[3]; [6],99 pg/well
same,"CTL precursor induction assay, response level per well","[3]; HRPC Pt. 4, pre-vaccinated PBMCs",⊚ArB
same,"CTL precursor induction assay, response level per well","[3]; HRPC Pt. 5, pre-vaccinated PBMCs",⊚AAE
same,"CTL precursor induction assay, response level per well",[3]; [7],⊚Ar
same,"CTL precursor induction assay, response level per well","[3]; HRPC Pt. 10, pre-vaccinated PBMCs",⊚A
KFHRVIGDF,number of donors in whom the skin reaction was significantly decreased (<=0.25 of the rate in redness range),healthy donors [1],1
VYDYNCHVDL [SART3109],rate of skin reaction occurrence,healthy donors [1],17%
same,rate of skin reaction occurrence (donors),healthy donors [1],7/41
GFHRVIKDF,number of donors in whom the skin reaction was significantly decreased (<=0.25 of the rate in redness range),healthy donors [1],1
KFGRVIKDF,number of donors in whom the skin reaction was significantly decreased (<=0.25 of the rate in redness range),healthy donors [1],2
DYLRSVLEDF [lck488],IFN-γ production 1st well,[3]; [5],25 pg/well
same,IFN-γ production 2nd well,[3]; [5],99 pg/well
same,IFN-γ production 1st well,[3]; [6],<0 pg/well
same,IFN-γ production 2nd well,[3]; [6],<0 pg/well
same,IFN-γ production 3rd well,[3]; [6],25 pg/well
same,peptide-specific DTH reaction,cancer patients; colorectal cancer patient 1,observed after the 6th vaccination
same,peptide-specific DTH reaction,cancer patients; [8],exhibited DTH reaction
KFHRVIPKF,"Allergic skin reaction, area of flare",healthy donors [2]; healthy donor HD1,600 mm × mm
same,"Allergic skin reaction, area of flare",healthy donors [2]; healthy donor HD2,750 mm × mm
same,"Allergic skin reaction, area of flare",healthy donors [2]; healthy donor HD3,1225 mm × mm
same,"Allergic skin reaction, area of flare",healthy donors [2]; healthy donor HD6,500 mm × mm
same,"Allergic skin reaction, area of flare",healthy donors [2]; healthy donor HD10,625 mm × mm
AFLRHGAL,number of donors with a significant decrease in skin reaction,healthy donors [1],one
AFLRHAAG [ART4 13-8G],suppressed cases FR ≦ 0.25,healthy donors [1],1/4
KFHRGIKDF,number of donors in whom the skin reaction was significantly decreased (<=0.25 of the rate in redness range),healthy donors [1],0
SFHRVIKDF,skin reaction compared with human CypB84,healthy donors [2]; 5 healthy donors,weaker skin reaction
same,"Allergic skin reaction, area of flare",healthy donors [2]; healthy donor HD1,0 mm × mm
same,"Allergic skin reaction, area of flare",healthy donors [2]; healthy donor HD2,400 mm × mm
same,"Allergic skin reaction, area of flare",healthy donors [2]; healthy donor HD3,225 mm × mm
same,"Allergic skin reaction, area of flare",healthy donors [2]; healthy donor HD6,255 mm × mm
same,"Allergic skin reaction, area of flare",healthy donors [2]; healthy donor HD10,100 mm × mm
KGHRVIKDF [CypB 84-2G],suppressed cases FR ≦ 0.25,healthy donors [1],1/7
KFHRVGKDF [CypB 84-6G],suppressed cases FR ≦ 0.25,healthy donors [1],3/7
AFLRHAGL [ART4 13-7G],suppressed cases FR ≦ 0.25,healthy donors [1],0/4
PFHRVIPDF,"Allergic skin reaction, area of flare",healthy donors [2]; healthy donor HD1,525 mm × mm
same,"Allergic skin reaction, area of flare",healthy donors [2]; healthy donor HD2,2000 mm × mm
same,"Allergic skin reaction, area of flare",healthy donors [2]; healthy donor HD3,1400 mm × mm
same,"Allergic skin reaction, area of flare",healthy donors [2]; healthy donor HD6,700 mm × mm
same,"Allergic skin reaction, area of flare",healthy donors [2]; healthy donor HD10,270 mm × mm
KFHRVIKGF,number of donors in whom the skin reaction was significantly decreased (<=0.25 of the rate in redness range),healthy donors [1],0
